Measurements: ChEMBL document CHEMBL5518236, “Discovery of Clinical Candidate AZD5462, a Selective Oral Allosteric RXFP1 Agonist for Treatment of Heart Failure” (J Med Chem, 2024)

Key:
[1] = Oral bioavailability in Han Wistar rat at 9.3 micromol/kg by LC-MS/MS analysis; assay type: ADME, organism-based; conditions: in vivo, 9.3 µmol/kg
[2] = Volume of distribution at steady state in Han Wistar rat at 0.93 micromol/kg, iv by LC-MS/MS analysis; assay type: ADME, organism-based; conditions: in vivo, dose 0.93 µmol/kg, read-out: Vdss
[3] = Clearance in Han Wistar rat at 0.93 micromol/kg, iv by LC-MS/MS analysis; assay type: ADME, organism-based; conditions: in vivo, dose 0.93 µmol/kg
[4] = Metabolic stability in rat hepatocytes assessed as unbound intrinsic clearance measured per 10^6 viable cells/ml at 1 uM measured upto 120 mins by LC-MS/MS analysis; assay type: ADME, cell-based, Hepatocyte; conditions: 2 h
[5] = Metabolic stability in human liver microsomes assessed as unbound intrinsic clearance at 1 uM measured upto 30 mins by LC-MS/MS analysis; assay type: ADME, Microsome; conditions: 0.5 h
[6] = Metabolic stability in human hepatocytes assessed as intrinsic clearance measured per 10^6 viable cells/ml at 1 uM measured upto 120 mins by LC-MS/MS analysis; assay type: ADME, cell-based, Hepatocyte; conditions: read-out: CLH
[7] = Octanol/water partition coefficient, logD of the compound at pH 7.4 by shake flask method; assay type: physicochemical
[8] = Metabolic stability in human liver microsomes assessed as intrinsic clearance at 1 uM measured upto 30 mins by LC-MS/MS analysis; assay type: ADME, Microsome; conditions: read-out: CLH
Relaxin receptor 1 [9] = biological target: T1, Relaxin receptor 1 (Rattus norvegicus, UniProt Q6R6I6); test: Agonist activity at rat RXFP1 expressed in CHO-K1 cells assessed as increase in cAMP level measured after 2 hrs by HTRF cAMP assay; assay type: functional, cell-based
T1 sequence (Q6R6I6 whole entry): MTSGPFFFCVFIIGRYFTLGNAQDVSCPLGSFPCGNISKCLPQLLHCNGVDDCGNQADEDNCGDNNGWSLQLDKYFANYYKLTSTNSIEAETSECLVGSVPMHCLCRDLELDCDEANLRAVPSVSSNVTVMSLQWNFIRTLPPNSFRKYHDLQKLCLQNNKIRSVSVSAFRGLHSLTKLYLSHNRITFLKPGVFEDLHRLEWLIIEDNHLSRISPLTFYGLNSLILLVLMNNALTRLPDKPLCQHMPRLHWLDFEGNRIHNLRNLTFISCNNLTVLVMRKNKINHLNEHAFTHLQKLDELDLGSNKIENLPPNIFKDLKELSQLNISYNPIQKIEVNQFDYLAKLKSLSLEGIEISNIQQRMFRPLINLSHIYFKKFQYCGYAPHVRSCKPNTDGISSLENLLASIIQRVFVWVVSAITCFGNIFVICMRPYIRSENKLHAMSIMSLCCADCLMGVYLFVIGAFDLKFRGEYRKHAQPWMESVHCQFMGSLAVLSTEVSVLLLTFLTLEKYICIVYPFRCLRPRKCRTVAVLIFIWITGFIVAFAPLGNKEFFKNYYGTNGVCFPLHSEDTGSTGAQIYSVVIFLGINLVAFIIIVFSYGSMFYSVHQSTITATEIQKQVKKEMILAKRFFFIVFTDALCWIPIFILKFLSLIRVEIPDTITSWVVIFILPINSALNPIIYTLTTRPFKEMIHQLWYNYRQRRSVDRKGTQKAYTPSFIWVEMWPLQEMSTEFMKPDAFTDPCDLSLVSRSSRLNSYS

[10] = Half life in Han Wistar rat at 0.93 micromol/kg, iv by LC-MS/MS analysis; assay type: ADME, organism-based; conditions: in vivo, dose 0.93 µmol/kg
[11] = Metabolic stability in human hepatocytes assessed as unbound intrinsic clearance measured per 10^6 viable cells/ml at 1 uM measured upto 120 mins by LC-MS/MS analysis; assay type: ADME, cell-based, Hepatocyte; conditions: 2 h
Relaxin receptor 1 [12] = biological target: T2, Relaxin receptor 1 (Mus musculus, UniProt Q6R6I7)
T2 sequence (Q6R6I7 whole entry): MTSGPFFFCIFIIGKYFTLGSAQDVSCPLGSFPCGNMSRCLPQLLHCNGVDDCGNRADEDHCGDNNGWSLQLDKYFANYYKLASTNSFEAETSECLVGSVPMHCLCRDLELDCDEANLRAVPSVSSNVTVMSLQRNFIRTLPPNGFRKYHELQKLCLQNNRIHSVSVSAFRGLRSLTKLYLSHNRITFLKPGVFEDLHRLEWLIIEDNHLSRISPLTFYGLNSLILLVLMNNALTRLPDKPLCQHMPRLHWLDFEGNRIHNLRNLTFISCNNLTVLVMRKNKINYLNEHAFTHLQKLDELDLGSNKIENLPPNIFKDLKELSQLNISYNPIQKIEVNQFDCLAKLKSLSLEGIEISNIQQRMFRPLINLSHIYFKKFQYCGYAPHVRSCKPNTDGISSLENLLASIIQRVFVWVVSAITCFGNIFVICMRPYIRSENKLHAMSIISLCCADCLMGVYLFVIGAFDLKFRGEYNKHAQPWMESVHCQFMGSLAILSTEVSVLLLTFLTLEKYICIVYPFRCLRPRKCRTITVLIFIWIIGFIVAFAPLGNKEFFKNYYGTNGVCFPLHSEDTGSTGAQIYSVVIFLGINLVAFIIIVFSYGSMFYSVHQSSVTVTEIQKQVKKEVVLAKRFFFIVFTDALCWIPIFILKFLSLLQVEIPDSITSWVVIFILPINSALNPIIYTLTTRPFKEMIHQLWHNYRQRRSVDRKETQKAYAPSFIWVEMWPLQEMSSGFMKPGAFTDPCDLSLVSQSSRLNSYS
Description: Agonist activity at mouse RXFP1 expressed in CHO-K1 cells assessed as increase in cAMP level measured after 2 hrs by HTRF cAMP assay

[13] = Protein binding in rat plasma assessed as fraction unbound at 5 uM measured after 18 hrs by LC-MS/MS analysis; assay type: ADME, cell-free; conditions: read-out: PPB
[14] = Volume of distribution at steady state in Han Wistar rat at 0.90 micromol/kg, iv by LC-MS/MS analysis; assay type: ADME, organism-based; conditions: in vivo, dose 0.9 µmol/kg, read-out: Vdss
[15] = Oral bioavailability in Han Wistar rat at 1.8 micromol/kg by LC-MS/MS analysis; assay type: ADME, organism-based; conditions: in vivo, 1.8 µmol/kg
[16] = Half life in Han Wistar rat at 0.90 micromol/kg, iv by LC-MS/MS analysis; assay type: ADME, organism-based; conditions: in vivo, dose 0.9 µmol/kg
[17] = Clearance in Han Wistar rat at 0.90 micromol/kg, iv by LC-MS/MS analysis; assay type: ADME, organism-based; conditions: in vivo, dose 0.9 µmol/kg
Relaxin receptor 1 [18] = biological target: T3, Relaxin receptor 1 (Homo sapiens, UniProt Q9HBX9)
T3 sequence (Q9HBX9 whole entry): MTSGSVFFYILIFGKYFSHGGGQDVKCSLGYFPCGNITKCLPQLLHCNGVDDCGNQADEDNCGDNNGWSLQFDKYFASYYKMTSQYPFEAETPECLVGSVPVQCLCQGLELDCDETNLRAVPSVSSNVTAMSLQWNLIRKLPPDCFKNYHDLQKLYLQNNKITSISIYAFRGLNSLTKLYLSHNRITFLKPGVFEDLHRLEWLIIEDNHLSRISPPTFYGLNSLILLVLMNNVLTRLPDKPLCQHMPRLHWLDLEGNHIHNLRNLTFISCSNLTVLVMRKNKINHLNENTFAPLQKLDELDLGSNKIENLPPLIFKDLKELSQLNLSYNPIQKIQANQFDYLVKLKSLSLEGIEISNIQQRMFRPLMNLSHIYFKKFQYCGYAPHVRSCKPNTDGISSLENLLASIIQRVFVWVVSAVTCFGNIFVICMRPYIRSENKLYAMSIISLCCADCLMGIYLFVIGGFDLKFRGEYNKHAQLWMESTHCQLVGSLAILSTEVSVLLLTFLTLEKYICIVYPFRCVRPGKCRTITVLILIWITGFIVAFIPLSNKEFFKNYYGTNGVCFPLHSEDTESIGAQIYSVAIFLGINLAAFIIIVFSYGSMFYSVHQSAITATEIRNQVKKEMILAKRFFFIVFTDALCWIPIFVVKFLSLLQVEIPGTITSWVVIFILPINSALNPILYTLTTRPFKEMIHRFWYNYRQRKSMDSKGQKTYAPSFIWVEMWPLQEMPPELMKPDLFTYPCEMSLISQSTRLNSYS
Description: Agonist activity at human RXFP1 expressed in CHO cells assessed as increase in cAMP level measured after 2 hrs by HTRF cAMP assay

[19] = Apparent permeability across apical to basolateral side in human Caco-2 cells at pH 7.4 by LC-MS/MS analysis; assay type: ADME, cell-based; conditions: Caco-2, pH 7.4
[20] = Efflux ratio of apparent permeability from basolateral side to apical side over apical side to basolateral side in human Caco-2 cells at pH 7.4 by LC-MS/MS analysis; conditions: Caco-2, pH 7.4
Relaxin receptor 1 [21] = biological target: T3, Relaxin receptor 1; test: Agonist activity at human RXFP1 expressed in CHO-K1 cells assessed as dynamic mass redistribution (DMR) measured after 60 mins by G-protein coupling DMR assay
Relaxin receptor 1 [22] = biological target: T3, Relaxin receptor 1; test: Agonist activity at human RXFP1 expressed in HEK293 cells assessed as cAMP production measured after 15 mins by BRET sensor assay
Relaxin receptor 1 [23] = biological target: T3, Relaxin receptor 1; test: Agonist activity at human RXFP1 expressed in CHO-K1 cells assessed as dynamic mass redistribution (DMR) measured after 60 mins pretreated with PTX by G-protein coupling DMR assay
Relaxin receptor 1 [24] = biological target: T3, Relaxin receptor 1; test: Agonist activity at human RXFP1 expressed in HEK293 cells co-expressing G-alphaz assessed as cAMP production measured after 15 mins by BRET sensor assay
[25] = Protein binding in human plasma assessed as fraction unbound at 5 uM measured after 18 hrs by LC-MS/MS analysis; assay type: ADME, cell-free; conditions: read-out: PPB
Relaxin receptor 1 [26] = biological target: T3, Relaxin receptor 1; test: Agonist activity at human RXFP1 expressed in HEK293 cells coexpressing GRK2 assessed as beta-arrestin internalization by BRET assay relative to control
Relaxin receptor 1 [27] = biological target: T3, Relaxin receptor 1; test: Agonist activity at human RXFP1 expressed in CHO-K1 cells assessed as dynamic mass redistribution (DMR) measured after 60 mins pretreated with UBO-QIC by G-protein coupling DMR assay
Relaxin receptor 1 [28] = biological target: T3, Relaxin receptor 1; test: Agonist activity at human RXFP1 expressed in HEK293 cells co-expressing G-alphas assessed as cAMP production measured after 15 mins by BRET sensor assay
Relaxin receptor 1 [29] = biological target: T3, Relaxin receptor 1; test: Agonist activity at human RXFP1 expressed in HEK293 cells assessed as ERK phosphorylation measured after 24 hrs by HTRF assay

| Compound | CL free [4] | CL free [5] | hepatocyte CLint at 1 µM [6] | logD [7] | microsomal CLint at 1 µM [8] | EC50 (Relaxin receptor 1 [9]) | CL free [11] | fraction unbound at 18 h, 5 µM [13] | also measured |
| --- | --- | --- | --- | --- | --- | --- | --- | --- | --- |
| COc1cc(C#N)c(O[C@H]2CC[C@@](C)(C(=O)O)CC2)cc1C(=O)N[C@@H]1[C@H]2CC[C@H](C2)[C@@H]1C(=O)NCC(C)(C)C | 15 µL/min | < 4.3 µL/min/mg | < 1.3 µL/min/1e6 cells | 2.3 | < 3 µL/min/mg | 15800 nM | < 2 µL/min | 0.078 | bioavailability [1]: 61%; Vd [2]: 0.55 L/kg; clearance [3]: 41 mL/min/kg; half-life [10]: 2 h; EC50 (Relaxin receptor 1 [12]): 1260 nM |
| COc1cc(C#N)c(O[C@H]2CC[C@@](C)(C(=O)O)CC2)cc1C(=O)N[C@@H]1[C@H]2CC[C@H](C2)[C@@H]1C(=O)NC12CC(F)(C1)C2 | 11 µL/min | 4.7 µL/min/mg | 1.5 µL/min/1e6 cells | 2.2 | 4 µL/min/mg | 10500 nM | 2.6 µL/min | 0.101 | Vd [14]: 0.96 L/kg; bioavailability [15]: 17%; half-life [16]: 1.4 h; clearance [17]: 59 mL/min/kg |
| COc1cc(F)c(O[C@H]2CC[C@@](C)(C(=O)O)CC2)cc1C(=O)N[C@@H]1[C@H]2CC[C@H](C2)[C@@H]1C(=O)NCC(C)(C)C | – | 20 µL/min/mg | 2.7 µL/min/1e6 cells | 3 | 14 µL/min/mg | – | 4.3 µL/min | – | EC50 (Relaxin receptor 1 [18]): 39.8 nM; Papp A→B [19]: 81 ×10⁻⁶ cm/s; efflux ratio [20]: 6.8 |
| COc1cc(F)c(O[C@H]2CC[C@@](C)(C(=O)O)CC2)cc1C(=O)N[C@@H]1[C@H]2CC[C@H](C2)[C@@H]1C(=O)Nc1ccc(F)c(S(F)(F)(F)(F)F)c1 | – | 3.39 10^3uL/min/mg | 21 µL/min/1e6 cells | 4.9 | 61 µL/min/mg | – | 2.1 10^3uL/min | – | EC50 (Relaxin receptor 1 [21]): 0.0251 nM; EC50 (Relaxin receptor 1 [22]): 0.0316 nM; EC50 (Relaxin receptor 1 [23]): 0.02 nM; EC50 (Relaxin receptor 1 [24]): 2.51 nM; fraction unbound at 18 h, 5 µM [25]: < 0.0023; EC50 (Relaxin receptor 1 [26]): 1.51 nM; EC50 (Relaxin receptor 1 [27]): 0.0251 nM; EC50 (Relaxin receptor 1 [28]): 0.316 nM; EC50 (Relaxin receptor 1 [29]): 3.16 nM |
